Measurements: article PMC10573892, “β-Lactam TRPM8 Antagonists Derived from Phe-Phenylalaninol Conjugates: Structure–Activity Relationships and Antiallodynic Activity” (International Journal of Molecular Sciences, 2023)

How the values were obtained:
[1] = tested on: oxaliplatin-induced cold hypersensitivity; assay: Oxaliplatin-induced cold allodynia in mice (acetone drop test); assay type: in vivo
Excerpt: It is established that treatments with the chemotherapeutic drug oxaliplatin (OXA) induce painful peripheral neuropathy, known as CIPN, which becomes more pronounced in cold conditions. The TRPM8 channel has been implicated in mouse models of CIPN pain induced by OXA [19, 51]. In fact, the OXA-induced peripheral neuropathy mouse model is being used for the pharmacological characterization of TRPM8 antagonists. For this peripheral neuropathy assay, mice were subcutaneously (s.c.) injected with OXA at a dose of 6 mg/kg dose on days 1, 3 and 5 to male mice to induce increased sensitivity to cold, which can be monitored through the acetone drop test.
Consequently, compounds 34 and 35 have been tested for their ability to alleviate OXA-induced cold hypersensitivity after intraplantar administration (i.pl., 3, 1 and 0.1 μg). […] This effect was observed 15 min post-administration and sustained up to 60 min.
(§1) Calcium fluorometry, Patch-Clamp assays and in vivo experiments were performed using the methodology previously described for TRPM8 [35] or TRPM3 [61]. In the Patch -Clamp experiments, the intracellular pipette solution contained (in mM) 140 KCl, 5 EGTA, and 10 mM HEPES, adjusted to pH 7.2 with KOH, and the extracellular solution contained (in mM) 140 NaCl, 2 CaCl2, 1 MgCl2, 10 D-glucose and 10 HEPES, adjusted to pH 7.4 with NaOH. Selectivity against TRPV1, TRPV3, TRPA1 and ASIC3 was subcontracted to Eurofins-CEREP or Eurofins-PANLABS (see ref. [35] for more details).
Figure 4 Effects of compounds 34 (A) and 35 (B) on the oxaliplatin (OXP)-induced cold hypersensitivity (drop acetone test). Peripheral neuropathy was induced in male mice by injecting OXA (6 mg/kg, s.c.) on days 1, 3 and 5. Control animals were treated with vehicle. Compounds 34 (A) and 35 (B) (3 µg/i.pl., 1 µg/i.pl. and 0.1 µg/i.pl.) were administered to the OXP-treated animals, and the time-course of cold hypersensitivity was measured. Data are given ± SEM (n = 5). Statistical analysis, comparing with oxaliplatin-treated mice, was performed by two-way ANOVA followed by post hoc Bonferroni test by multiple comparisons: * […], ** p < 0.01, **** p < 0.0001.

[2] = target: T1, hTRPV3 (Homo sapiens, UniProt Q8NET8); assay: TRPV3 channel Ca2+ microfluorimetry (2-APB 30 μM); assay type: cell-based; settings: agonist 2-APB 30 μM
T1 construct: Eurofins-CEREP or Eurofins-PANLABS (contract assay)
T1 sequence (Q8NET8 1-790): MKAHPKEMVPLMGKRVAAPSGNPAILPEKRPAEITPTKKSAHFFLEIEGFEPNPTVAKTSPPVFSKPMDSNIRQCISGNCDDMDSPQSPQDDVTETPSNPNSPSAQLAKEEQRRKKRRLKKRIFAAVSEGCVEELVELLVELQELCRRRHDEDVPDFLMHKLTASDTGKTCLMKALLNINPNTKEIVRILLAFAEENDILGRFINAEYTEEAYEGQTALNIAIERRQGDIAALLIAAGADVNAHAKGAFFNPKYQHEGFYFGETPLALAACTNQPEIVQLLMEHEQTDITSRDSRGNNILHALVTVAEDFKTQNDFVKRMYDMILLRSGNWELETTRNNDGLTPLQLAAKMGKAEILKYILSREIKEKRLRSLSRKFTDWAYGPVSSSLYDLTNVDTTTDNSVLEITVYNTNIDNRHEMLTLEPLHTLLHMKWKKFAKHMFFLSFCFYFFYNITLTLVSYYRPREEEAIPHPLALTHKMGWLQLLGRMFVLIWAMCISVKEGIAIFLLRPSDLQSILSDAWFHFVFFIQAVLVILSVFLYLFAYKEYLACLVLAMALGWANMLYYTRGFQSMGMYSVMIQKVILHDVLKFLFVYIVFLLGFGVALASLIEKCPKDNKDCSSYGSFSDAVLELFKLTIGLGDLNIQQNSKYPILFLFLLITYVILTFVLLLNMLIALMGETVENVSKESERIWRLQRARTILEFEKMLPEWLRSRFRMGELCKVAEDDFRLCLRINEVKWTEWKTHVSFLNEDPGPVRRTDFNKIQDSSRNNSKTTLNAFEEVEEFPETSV
Excerpt: (§2) The effects of compound 34 have been evaluated on different ion channels and receptors implicated in pain-related processes to assess the selectivity for TRPM8 channels. First, some TRP channels that play a role in temperature integration and nociception were selected, including hTRPV1, hTRPV3, hTRPA1 and TRPM3. Additionally, the evaluation encompassed the hASIC3 channel with widespread distribution within the peripheral nervous system and contributions to the excitability of primary sensory neurons. In each instance, the compound was subjected to evaluation at a consistent concentration of 10 µM.
as §1

[3] = target: T2, hTRPM8 (Homo sapiens, UniProt Q7Z2W7); assay: Ca2+ microfluorimetry in HEK293 cells expressing human TRPM8; assay type: cell-based; settings: activation by 100 µM menthol; read-out: Ca^2+ Microfluorimetry Assays hTRPM8 IC50
T2 construct: expressed in transfected cells; host or cells: HEK293
T2 sequence (Q7Z2W7 whole entry): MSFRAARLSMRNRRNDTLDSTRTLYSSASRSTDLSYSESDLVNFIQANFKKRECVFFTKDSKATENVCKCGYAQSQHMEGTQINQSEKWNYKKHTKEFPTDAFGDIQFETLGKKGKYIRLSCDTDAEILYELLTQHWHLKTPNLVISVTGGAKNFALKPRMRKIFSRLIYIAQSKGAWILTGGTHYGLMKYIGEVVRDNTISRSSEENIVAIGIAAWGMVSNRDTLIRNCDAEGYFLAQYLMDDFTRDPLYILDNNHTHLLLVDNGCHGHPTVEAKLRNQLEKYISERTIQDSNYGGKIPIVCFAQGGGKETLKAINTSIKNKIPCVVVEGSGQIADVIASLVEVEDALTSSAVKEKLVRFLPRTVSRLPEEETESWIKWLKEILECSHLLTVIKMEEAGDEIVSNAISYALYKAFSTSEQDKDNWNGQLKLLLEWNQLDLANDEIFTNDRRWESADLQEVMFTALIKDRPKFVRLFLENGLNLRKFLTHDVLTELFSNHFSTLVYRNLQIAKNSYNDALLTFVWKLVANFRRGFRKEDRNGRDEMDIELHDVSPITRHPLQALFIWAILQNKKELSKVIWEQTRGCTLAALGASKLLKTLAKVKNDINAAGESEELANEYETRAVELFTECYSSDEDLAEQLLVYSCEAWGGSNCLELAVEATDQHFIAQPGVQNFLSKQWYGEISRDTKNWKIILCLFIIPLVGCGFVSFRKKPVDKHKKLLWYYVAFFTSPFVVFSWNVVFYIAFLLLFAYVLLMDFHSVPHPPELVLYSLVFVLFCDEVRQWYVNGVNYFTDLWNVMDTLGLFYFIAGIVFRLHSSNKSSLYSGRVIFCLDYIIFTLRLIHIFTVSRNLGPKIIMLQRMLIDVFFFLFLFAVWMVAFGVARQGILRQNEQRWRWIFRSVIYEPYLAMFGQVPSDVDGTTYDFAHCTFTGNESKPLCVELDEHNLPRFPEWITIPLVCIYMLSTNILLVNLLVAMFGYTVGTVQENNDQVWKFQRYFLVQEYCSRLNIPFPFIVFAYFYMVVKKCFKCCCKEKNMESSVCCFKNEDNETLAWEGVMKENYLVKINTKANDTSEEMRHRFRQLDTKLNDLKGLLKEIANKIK
Description: To further characterize this family of compounds, calcium microfluorimetry assays were conducted using the HEK293 cell line, which expresses the human isoform of the TRPM8 channel. Amide derivatives 34 and 35 were selected, and their outcomes were compared with those of the model compound 1 (Table 4). […] This behavior is not particular of these β-lactams, but it is similar to those observed for other TRPM8 antagonists.
as §1

[4] = target: T3, hTRPA1 (Homo sapiens, UniProt O75762); assay: TRPA1 channel Ca2+ microfluorimetry (allylisothiocyanate 10 μM); assay type: cell-based; settings: agonist allylisothiocyanate 10 μM
T3 construct: Eurofins-CEREP or Eurofins-PANLABS (contract assay)
T3 sequence (O75762 whole entry): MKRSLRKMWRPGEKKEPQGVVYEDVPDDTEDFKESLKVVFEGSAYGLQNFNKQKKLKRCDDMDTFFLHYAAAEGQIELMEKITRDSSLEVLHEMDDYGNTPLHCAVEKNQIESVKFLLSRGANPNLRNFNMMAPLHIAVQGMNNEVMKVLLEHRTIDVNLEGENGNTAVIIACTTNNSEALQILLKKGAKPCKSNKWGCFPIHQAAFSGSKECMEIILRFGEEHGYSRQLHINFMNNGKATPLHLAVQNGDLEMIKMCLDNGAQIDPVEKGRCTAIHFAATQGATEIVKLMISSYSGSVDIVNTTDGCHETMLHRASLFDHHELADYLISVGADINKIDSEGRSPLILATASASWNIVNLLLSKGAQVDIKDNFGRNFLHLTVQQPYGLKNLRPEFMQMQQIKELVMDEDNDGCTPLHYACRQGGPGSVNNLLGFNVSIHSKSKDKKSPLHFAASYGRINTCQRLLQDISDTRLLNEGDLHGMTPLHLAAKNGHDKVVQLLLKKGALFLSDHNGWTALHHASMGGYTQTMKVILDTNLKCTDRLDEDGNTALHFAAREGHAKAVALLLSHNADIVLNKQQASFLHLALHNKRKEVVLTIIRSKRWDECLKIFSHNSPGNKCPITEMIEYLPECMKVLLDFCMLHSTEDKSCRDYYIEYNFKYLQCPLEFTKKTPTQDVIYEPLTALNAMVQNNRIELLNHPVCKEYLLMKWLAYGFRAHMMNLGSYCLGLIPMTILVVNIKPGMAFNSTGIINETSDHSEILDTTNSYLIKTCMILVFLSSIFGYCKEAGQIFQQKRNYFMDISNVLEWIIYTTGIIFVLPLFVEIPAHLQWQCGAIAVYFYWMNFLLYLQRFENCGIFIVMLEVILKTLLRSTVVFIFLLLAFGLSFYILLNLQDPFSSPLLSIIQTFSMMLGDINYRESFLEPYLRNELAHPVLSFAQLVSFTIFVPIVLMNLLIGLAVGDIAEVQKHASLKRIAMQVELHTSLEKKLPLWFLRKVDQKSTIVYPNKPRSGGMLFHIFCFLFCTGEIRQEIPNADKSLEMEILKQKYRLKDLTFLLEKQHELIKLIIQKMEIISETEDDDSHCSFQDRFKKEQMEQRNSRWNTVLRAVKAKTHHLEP
Excerpt: as §2, §1

[5] = target: hTRPM3 (Homo sapiens, UniProt Q9HCF6); assay: TRPM3 channel Ca2+ microfluorimetry (pregnenolone sulfate 50 µM); assay type: cell-based; settings: 10 μM; agonist pregnenolone sulfate 50 µM; read-out: % Channel Inhibition at 10 μM hTRPM3
Chain of hTRPM3 (Q9HCF6 whole entry): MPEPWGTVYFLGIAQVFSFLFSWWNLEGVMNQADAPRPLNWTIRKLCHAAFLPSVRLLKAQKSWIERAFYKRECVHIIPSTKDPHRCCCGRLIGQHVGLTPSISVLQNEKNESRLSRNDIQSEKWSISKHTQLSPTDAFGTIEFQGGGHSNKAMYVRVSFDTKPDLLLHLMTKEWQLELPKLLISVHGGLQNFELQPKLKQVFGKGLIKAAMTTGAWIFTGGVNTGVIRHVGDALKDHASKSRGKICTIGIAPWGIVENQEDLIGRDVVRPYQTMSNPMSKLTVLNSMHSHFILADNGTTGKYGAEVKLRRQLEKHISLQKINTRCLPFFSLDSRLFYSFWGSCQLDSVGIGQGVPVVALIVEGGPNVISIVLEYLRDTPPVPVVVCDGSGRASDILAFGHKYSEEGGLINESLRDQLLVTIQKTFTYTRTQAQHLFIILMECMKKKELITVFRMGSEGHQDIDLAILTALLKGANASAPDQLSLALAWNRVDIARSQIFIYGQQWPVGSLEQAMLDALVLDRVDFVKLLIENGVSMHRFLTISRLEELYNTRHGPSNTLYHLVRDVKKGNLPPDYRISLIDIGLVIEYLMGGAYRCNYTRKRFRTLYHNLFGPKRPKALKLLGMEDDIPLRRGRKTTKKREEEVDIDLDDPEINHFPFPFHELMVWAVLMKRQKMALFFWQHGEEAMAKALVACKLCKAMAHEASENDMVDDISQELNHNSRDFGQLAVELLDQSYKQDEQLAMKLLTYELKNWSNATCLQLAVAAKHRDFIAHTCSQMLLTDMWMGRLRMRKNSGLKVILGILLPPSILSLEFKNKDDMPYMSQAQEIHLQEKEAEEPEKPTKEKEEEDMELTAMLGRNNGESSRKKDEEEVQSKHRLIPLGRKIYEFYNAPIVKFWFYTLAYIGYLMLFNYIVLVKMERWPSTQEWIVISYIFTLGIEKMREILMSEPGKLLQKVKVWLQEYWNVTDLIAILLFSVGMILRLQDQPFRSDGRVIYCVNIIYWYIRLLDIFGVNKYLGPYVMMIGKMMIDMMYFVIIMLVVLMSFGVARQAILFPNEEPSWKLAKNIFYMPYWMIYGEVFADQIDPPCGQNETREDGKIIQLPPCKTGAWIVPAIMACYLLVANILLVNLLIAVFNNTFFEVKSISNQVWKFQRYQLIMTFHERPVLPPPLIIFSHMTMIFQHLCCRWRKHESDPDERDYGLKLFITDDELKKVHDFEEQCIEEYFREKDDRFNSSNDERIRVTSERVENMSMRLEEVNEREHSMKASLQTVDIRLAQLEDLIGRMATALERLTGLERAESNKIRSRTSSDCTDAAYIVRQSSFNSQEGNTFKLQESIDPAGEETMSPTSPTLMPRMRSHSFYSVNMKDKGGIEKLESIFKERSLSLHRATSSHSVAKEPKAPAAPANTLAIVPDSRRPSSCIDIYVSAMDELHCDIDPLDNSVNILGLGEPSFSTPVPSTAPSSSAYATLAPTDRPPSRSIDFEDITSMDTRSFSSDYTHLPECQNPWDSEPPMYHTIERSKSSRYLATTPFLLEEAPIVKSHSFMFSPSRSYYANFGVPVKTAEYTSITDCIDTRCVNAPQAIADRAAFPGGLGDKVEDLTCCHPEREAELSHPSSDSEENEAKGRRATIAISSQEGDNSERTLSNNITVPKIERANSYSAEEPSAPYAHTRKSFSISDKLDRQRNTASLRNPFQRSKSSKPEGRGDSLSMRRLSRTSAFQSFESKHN
Description: as §2, with “First,” for “The effects of compound 34 have been evaluated on different ion channels and receptors implicated in pain-related processes to assess the selectivity for TRPM8 channels. First,”
as §1

[6] = tested on: dorsal root ganglia (DRG) sensory neurons; assay: Resting membrane potential of DRG sensory neurons (current clamp Patch-Clamp); assay type: cell-based; settings: 10 µM
Description: We also investigated the effect of β-lactams derivatives on the resting membrane potential (RMP) of dorsal root ganglia (DRG) sensory neurons.
(A) Representative recordings of resting membrane potential measured under current clamp configuration. The traces show the action potentials (APs) firings from DRG neurons elicited by 100 μM menthol (left trace) or in the presence of vehicle (0.5% DMSO) or the β-lactams derivatives ([…]). (B) Changes in the Vm in the absence and in the presence of 10 μM of the β-lactams derivatives. Data were analyzed by one-way ANOVA followed by Bonferroni post hoc test for multiple comparisons (ns = no significance, **** p < = 0.0001) and given as mean ± SEM; n ≥ 40 cells from 4 cultures.

With CC(C)CNC(=O)[C@]1(Cc2ccccc2)[C@H](C)C(=O)N1C[C@H](Cc1ccccc1)N(Cc1ccccc1)Cc1ccccc1 [Compound 34, 4S-Benzyl-4-[N-(iso-butyl)-carbamoyl]-3S-methyl-1-[(2′S-dibenzylamino-3′-phenyl)prop-1′-yl]-2-oxoazetidine] the “time the antiallodynic effect is sustained” value ([1]; i.pl., observed from 15 min post-administration) was “up to 60 min”, the “effect on cold-induced paw licking” value ([1]; male mice, OXA 6 mg/kg s.c. days 1, 3, 5, i.pl. 3, 1 and 0.1 μg) was “dose-dependent and significant reduction” and the inhibition at 10 µM [2] was 17.3 ± 5.7%. The IC50 [3] was 2.58 ± 1.24 µM, the inhibition at 10 µM [4] was 2 ± 3.4% and the inhibition at 10 µM [5] was 6.9 ± 10.7%. The “effect on resting membrane potential (RMP)” value [6] was “did not alter the RMP”.
